Data: patent publication US20230159538A1, “PYRROLIDINE-PYRAZOLES AS PYRUVATE KINASE ACTIVATORS” (Global Blood Therapeutics, Inc., priority 2020, published 2023)

Target: T1, Human pyruvate kinase R (PKR) (Homo sapiens, UniProt P30613)
T1 construct: Human pyruvate kinase R (PKR), residues 14-574; 6x-His (N, cleaved yes); 8x-Arg (N, cleaved yes); SUMO (N, cleaved yes); host or cells: E. coli
Assay: Biochemical assay for activation of pyruvate kinase R (Kinase-Glo luminescence, ATP generation)
Details: for AC50: 0.1 nM PKR, 2 mM FBP, 0.3 mM ADP, 0.1 mM PEP; for PKR % activation: maximal activation level relative to the activation level achieved by AG-348 @ 10 μM
Summary of the method: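 E. coli-expressed human PKR, freed of its His-Arg-SUMO tag and purified by anion exchange and size exclusion, was tested for activation. Read-out was luminescent measurement of ATP generation with Kinase-Glo reagent.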

T1 sequence (P30613 14-574): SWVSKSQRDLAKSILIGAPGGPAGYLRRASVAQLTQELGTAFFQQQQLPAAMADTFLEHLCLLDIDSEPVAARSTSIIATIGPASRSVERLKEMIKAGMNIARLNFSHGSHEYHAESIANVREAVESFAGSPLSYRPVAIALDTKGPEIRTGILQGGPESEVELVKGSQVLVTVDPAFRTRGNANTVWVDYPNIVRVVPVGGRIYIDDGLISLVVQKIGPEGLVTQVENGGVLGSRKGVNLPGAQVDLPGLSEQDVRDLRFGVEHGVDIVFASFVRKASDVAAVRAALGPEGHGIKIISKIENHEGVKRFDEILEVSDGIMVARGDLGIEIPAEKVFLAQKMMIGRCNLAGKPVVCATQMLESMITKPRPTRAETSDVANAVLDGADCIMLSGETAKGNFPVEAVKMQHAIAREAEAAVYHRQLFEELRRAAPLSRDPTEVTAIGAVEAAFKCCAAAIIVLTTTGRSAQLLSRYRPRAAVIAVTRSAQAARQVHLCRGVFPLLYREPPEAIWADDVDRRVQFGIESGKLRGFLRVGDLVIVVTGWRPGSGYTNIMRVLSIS

SMILES | AC50 | PKR % activation
C[C@@H](O)[C@@H](C(=O)N1Cc2cn(S(=O)(=O)c3cnc4c(c3)OCCO4)nc2C1)c1ccccc1Cl (single isomer, unassigned) [Compound 70] | 15 nM | 80%
O=C(C(CO)c1ccccc1Cl)N1Cc2cn(S(=O)(=O)c3cnc4c(c3)OCCO4)nc2C1 (single isomer, unassigned) [Compound 71, (2S,3R)-2-(2-chlorophenyl)-1-(2-[2H,3H[1,4]dioxino[2,3-b]pyridine-7-sulfonyl]-4H,6H-pyrrolo[3,4-c]pyrazol-5-yl)-3-hydroxybutan-1-one or (2R,3R)-2-(2-chlorophenyl)-1-(2-[2H,3H-[1,4]dioxino[2,3-b]pyridine-7-sulfonyl]-4H,6H-pyrrolo[3,4-c]pyrazol-5-yl)-3-hydroxybutan-1-one] | 8.9 nM | –
C[C@@H](O)[C@H](C(=O)N1Cc2cn(S(=O)(=O)c3ccc4ncsc4c3)nc2C1)c1ccccc1 [Compound 6] | 2530 nM | 150%
C[C@@H](O)[C@H](C(=O)N1Cc2cn(S(=O)(=O)c3ccc(OC(F)F)cc3)nc2C1)c1ccccc1 [Compound 9] | 147 nM | 131%
O=C([C@@H](CO)c1ccccc1)N1Cc2cn(S(=O)(=O)c3ccc(OC(F)F)cc3)nc2C1 (single isomer, unassigned) [Compound 8, (2R)-1-{2-[4-(difluoromethoxy)benzenesulfonyl]-2H,4H,5H,6H-pyrrolo[3,4-c]pyrazol-5-yl}-3-hydroxy-2-phenylpropan-1-one, or (2S)-1-{2-[4-(difluoromethoxy)benzenesulfonyl]-2H,4H,5H,6H-pyrrolo[3,4-c]pyrazol-5-yl}-3-hydroxy-2-phenylpropan-1-one] | 1980 nM | 152%
O=C1CN([C@@H](C(=O)N2Cc3cn(S(=O)(=O)c4ccc(OC(F)F)cc4)nc3C2)c2ccccc2)C1 (single isomer, unassigned) [Compound 93, 1-[(1R)-2-{2-[4-(difluoromethoxy)benzenesulfonyl]-2H,4H,5H,6H-pyrrolo[3,4-c]pyrazol-5-yl}-2-oxo-1-phenylethyl]azetidin-3-one or 1-[(1S)-2-{2-[4-(difluoromethoxy)benzenesulfonyl]-2H,4H,5H,6H-pyrrolo[3,4-c]pyrazol-5-yl}-2-oxo-1-phenylethyl]azetidin-3-one] | 5550 nM | 84%
O=C([C@@H](c1ccccc1)N1CCC1=O)N1Cc2cn(S(=O)(=O)c3ccc(OC(F)F)cc3)nc2C1 (single isomer, unassigned) [Compound 100, 1-[(1R)-2-{2-[4-(difluoromethoxy)benzenesulfonyl]-2H,4H,5H,6H-pyrrolo[3,4-c]pyrazol-5-yl}-2-oxo-1-phenylethyl]azetidin-2-one or 1-[(1S)-2-{2-[4-(difluoromethoxy)benzenesulfonyl]-2H,4H,5H,6H-pyrrolo[3,4-c]pyrazol-5-yl}-2-oxo-1-phenylethyl]azetidin-2-one] | > 10000 nM | 0%
O=C(N1Cc2cn(S(=O)(=O)c3ccc(OC(F)F)cc3)nc2C1)C1(c2ncccc2Cl)COC1 [Compound 75, 3-chloro-2-(3-{2-[4-(difluoromethoxy)benzenesulfonyl]-2H,4H,5H,6H-pyrrolo[3,4-c]pyrazole-5-carbonyl}oxetan-3-yl)pyridine] | 4.4 nM | –
Cc1ncccc1[C@@H](N)C(=O)N1Cc2cn(S(=O)(=O)c3ccc4ncsc4c3)nc2C1 (single isomer, unassigned) [Compound 47, (2R)-2-amino-1-[2-(1,3-benzothiazole-6-sulfonyl)-2H,4H,5H,6H-pyrrolo[3,4-c]pyrazol-5-yl]-2-(2-methylpyridin-3-yl)ethan-1-one or (2S)-2-amino-1-[2-(1,3-benzothiazole-6-sulfonyl)-2H,4H,5H,6H-pyrrolo[3,4-c]pyrazol-5-yl]-2-(2-methylpyridin-3-yl)ethan-1-one] | 64 nM | 40%
C[C@@H](O)[C@@H](C(=O)N1Cc2cn(S(=O)(=O)c3ccc(OC(F)F)cc3)nc2C1)c1ccccc1Cl (single isomer, unassigned) [Compound 66] | 13 nM | 142%

The remaining lines, values ahead:

AC50 | PKR % activation | SMILES
15 nM | 94% | O=C(N1Cc2cn(S(=O)(=O)c3ccc4c(c3)NCCO4)nc2C1)[C@]1(c2ccccn2)CCOC1 (single isomer, unassigned) [Compound 45, 6-({5-[(3S)-3-(pyridin-2-yl)oxolane-3-carbonyl]-2H,4H,5H,6H-pyrrolo[3,4-c]pyrazol-2-yl}sulfonyl)-3,4-dihydro-2H-1,4-benzoxazine or 6-({5-[(3R)-3-(pyridin-2-yl)oxolane-3-carbonyl]-2H,4H,5H,6H-pyrrolo[3,4-c]pyrazol-2-yl}sulfonyl)-3,4-dihydro-2H-1,4-benzoxazine]
3.4 nM | – | N[C@@H](C(=O)N1Cc2cn(S(=O)(=O)c3ccc4occc4c3)nc2C1)c1ccccc1F [Compound 64, (2R)-2-amino-1-[2-(1-benzofuran-5-sulfonyl)-2H,4H,5H,6H-pyrrolo[3,4-c]pyrazol-5-yl]-2-(2-fluorophenyl)ethan-1-one]
156 nM | – | N[C@@H](C(=O)N1Cc2cn(S(=O)(=O)c3ccc4c(c3)NCCO4)nc2C1)c1ccccc1 [Compound 16, (2R)-2-amino-1-[2-(3,4-dihydro-2H-1,4-benzoxazine-6-sulfonyl)-2H,4H,5H,6H-pyrrolo[3,4-c]pyrazol-5-yl]-2-phenylethan-1-one]
17 nM | – | N[C@@H](C(=O)N1Cc2cn(S(=O)(=O)c3ccc(OC(F)F)cc3)nc2C1)c1ccc(F)cc1 [Compound 49, (2R)-2-amino-1-{2-[4-(difluoromethoxy)benzenesulfonyl]-2H,4H,5H,6H-pyrrolo[3,4-c]pyrazol-5-yl}-2-(4-fluorophenyl)ethan-1-one]
7.9 nM | – | O=C([C@H](CO)c1ccccc1)N1Cc2cn(S(=O)(=O)c3cccc(OC(F)F)c3)nc2C1 [Compound 83, (2S)-1-{2-[3-(difluoromethoxy)benzenesulfonyl]-2H,4H,5H,6H-pyrrolo[3,4-c]pyrazol-5-yl}-3-hydroxy-2-phenylpropan-1-one]
167 nM | – | NCC(C(=O)N1Cc2cn(S(=O)(=O)c3ccc4ncsc4c3)nc2C1)c1ccccc1 (stereo not shown) [Compound 13, 3-amino-1-[2-(1,3-benzothiazole-6-sulfonyl)-2H,4H,5H,6H-pyrrolo[3,4-c]pyrazol-5-yl]-2-phenylpropan-1-one]
8.3 nM | – | N[C@@H](C(=O)N1Cc2cn(S(=O)(=O)c3ccc4ncsc4c3)nc2C1)c1ccccc1Cl [Compound 63, (2R)-2-amino-1-[2-(1,3-benzothiazole-6-sulfonyl)-2H,4H,5H,6H-pyrrolo[3,4-c]pyrazol-5-yl]-2-(2-chlorophenyl)ethan-1-one]
452 nM | 48% | O=C(N1Cc2cn(S(=O)(=O)c3ccc4ncsc4c3)nc2C1)[C@@]1(c2ccccc2)CCCN1 (single isomer, unassigned) [Compound 61, 6-({5-[(2S)-2-phenylpyrrolidine-2-carbonyl]-2H,4H,5H,6H-pyrrolo[3,4-c]pyrazol-2-yl}sulfonyl)-1,3-benzothiazole or 6-({5-[(2R)-2-phenylpyrrolidine-2-carbonyl]-2H,4H,5H,6H-pyrrolo[3,4-c]pyrazol-2-yl}sulfonyl)-1,3-benzothiazole]
